Results on one compound are retold here after US20140030705A1, “SYSTEMS AND METHODS FOR ASSESSING BIOMOLECULE CHARACTERISTICS” (BioNano Genomics, Inc., priority 2010, published 2014).

The data set concerns human B cells. Particulars: 500 μM vs. 0 μM hydrogen peroxide.

As to `OO` [hydrogen peroxide], where the note is “average molecule length and labels/100 kb”, the “average size of the DNA and label incorporation density (FIG. 8B)” value was “clear oxidative damage detection in the form of DSBs and SSBs”. For the setting “triplicate samples”, the “DNA size histograms of treated vs. untreated cells (FIG. 8A)” value is reported as “clear shift to smaller fragment sizes”.
